Assay results from patent publication US20240246937A1 (MERCK SHARP & DOHME LLC, priority 2021, published 2024).

What follows are compounds tested against recombinant IL4I1 (Homo sapiens (Human), UniProt Q96RQ9) (assay: IL4I1 Enzymatic Assay (Amplex Red/HRP coupled fluorescence detection of H2O2)). Conditions: 240 min; recombinant IL4I1, four-hour pre-incubation with compound.
Type: biochemical
How it was run: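 Recombinant human IL4I1 (1 nM final) pre-incubated 4 h with compound at ambient temperature in 50 mM Hepes pH 7.0, 0.005% Tween20. Started with 1 mM each Phe/Tyr/Trp plus Amplex Red/HRP; H2O2-derived resorufin fluorescence read after 120 min; EC50 from ten-point 1:3 titration, four-parameter fit.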

recombinant IL4I1, sequence (Q96RQ9 22-567): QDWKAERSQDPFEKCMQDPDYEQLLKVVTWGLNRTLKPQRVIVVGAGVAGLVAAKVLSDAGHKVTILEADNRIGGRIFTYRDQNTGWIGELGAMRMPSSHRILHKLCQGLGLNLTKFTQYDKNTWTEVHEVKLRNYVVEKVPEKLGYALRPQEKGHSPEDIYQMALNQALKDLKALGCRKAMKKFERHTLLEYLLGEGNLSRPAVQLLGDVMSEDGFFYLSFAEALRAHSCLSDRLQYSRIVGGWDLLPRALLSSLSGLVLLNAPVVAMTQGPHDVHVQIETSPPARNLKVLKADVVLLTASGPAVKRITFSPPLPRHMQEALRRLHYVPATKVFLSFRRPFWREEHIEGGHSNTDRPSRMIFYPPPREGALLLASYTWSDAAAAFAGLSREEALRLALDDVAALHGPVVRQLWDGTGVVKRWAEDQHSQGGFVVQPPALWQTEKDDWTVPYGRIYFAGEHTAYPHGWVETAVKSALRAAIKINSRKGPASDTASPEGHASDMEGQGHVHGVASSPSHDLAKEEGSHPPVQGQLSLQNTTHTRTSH

EC50 [nM]	SMILES
35	O=C1C(=O)N(C2CCCC2)CCN1Cc1ccc2cc[nH]c(=O)c2c1 [Example 272, 1-cyclopentyl-4-((1-oxo-1,2-dihydroisoquinolin-7-yl)methyl)piperazine-2,3-dione]
19	O=C1C(=O)N(C2CCCC2)CCN1Cc1cnn(-c2ccccc2)c1 [Example 273, 1-cyclopentyl-4-((1-phenyl-1H-pyrazol-4-yl)methyl)piperazine-2,3-dione]
34	O=C1C(=O)N(C2CCCC2)CCN1Cc1cc(-c2ccccc2)n[nH]1 [Example 274, 1-cyclopentyl-4-((3-phenyl-1H-pyrazol-5-yl)methyl)piperazine-2,3-dione]
20	O=C1NCCc2ccc(CN3CCN(C4CCCC4)C(=O)C3=O)cc21 [Example 275, 1-cyclopentyl-4-((1-oxo-1,2,3,4-tetrahydroisoquinolin-7-yl)methyl)piperazine-2,3-dione]
26	O=C1C(=O)N(C23CC(C2)C3)CCN1Cc1ncc(-c2ccccc2)cn1 [Example 276, 1-(bicyclo[1.1.1]pentan-1-yl)-4-((5-phenylpyrimidin-2-yl)methyl)piperazine-2,3-dione]
24	O=C1C(=O)N(C2CCC2)CCN1Cc1ncc(-c2ccccc2)cn1 [Example 277, 1-cyclobutyl-4-((5-phenylpyrimidin-2-yl)methyl)piperazine-2,3-dione]
16	O=C1C(=O)N([C@H]2C[C@H]3C[C@H]3C2)CCN1Cc1ncc(-c2ccccc2)cn1 [Example 278, 1-((cis)-bicyclo[3.1.0]hexan-3-yl)-4-((5-phenylpyrimidin-2-yl)methyl)piperazine-2,3-dione]
68	O=C1C(=O)N(C2CCOC2)CCN1Cc1ncc(-c2ccccc2)cn1 (stereo not shown) [Example 279, 1-((5-phenylpyrimidin-2-yl)methyl)-4-(tetrahydrofuran-3-yl)piperazine-2,3-dione]
38	O=C1C(=O)N(CC2CC2)CCN1Cc1ncc(-c2ccccc2)cn1 [Example 280, 1-(cyclopropylmethyl)-4-((5-phenylpyrimidin-2-yl)methyl)piperazine-2,3-dione]
35	O=C1C(=O)N(CC2CCC2)CCN1Cc1ncc(-c2ccccc2)cn1 [Example 281, 1-(cyclobutylmethyl)-4-((5-phenylpyrimidin-2-yl)methyl)piperazine-2,3-dione]
30	CC1CCC1N1CCN(Cc2ncc(-c3ccccc3)cn2)C(=O)C1=O (stereo not shown) [Example 282, 1-(2-methylcyclobutyl)-4-((5-phenylpyrimidin-2-yl)methyl)piperazine-2,3-dione]
7	O=C1C(=O)N([C@H]2C[C@H]3C[C@H]3C2)CCN1Cc1nnc(-c2ccccc2)s1 [Example 283, 1-((cis)-bicyclo[3.1.0]hexan-3-yl)-4-((5-phenyl-1,3,4-thiadiazol-2-yl)methyl)piperazine-2,3-dione]
8	O=C1C(=O)N(C2C[C@@H]3C[C@@H]3C2)CCN1Cc1ccc(-c2ccccc2)nn1 (stereo partly drawn) [Example 284, 1-((cis)-bicyclo[3.1.0]hexan-3-yl)-4-((6-phenylpyridazin-3-yl)methyl)piperazine-2,3-dione]
28	N#CC1CC(N2CCN(Cc3nnc(-c4ccccc4)s3)C(=O)C2=O)C1 (stereo not shown) [Example 285, 3-(2,3-dioxo-4-((5-phenyl-1,3,4-thiadiazol-2-yl)methyl)piperazin-1-yl)cyclobutane-1-carbonitrile]
34	CC(C)N1CCN(Cc2ncc(-c3ccccc3)cn2)C(=O)C1=O [Example 286, 1-isopropyl-4-((5-phenylpyrimidin-2-yl)methyl)piperazine-2,3-dione]
34	CC(C)(C)CN1CCN(Cc2ncc(-c3ccccc3)cn2)C(=O)C1=O [Example 287, 1-neopentyl-4-((5-phenylpyrimidin-2-yl)methyl)piperazine-2,3-dione]
37	CC(CF)N1CCN(Cc2ncc(-c3ccccc3)cn2)C(=O)C1=O (stereo not shown) [Example 288, 1-(1-fluoropropan-2-yl)-4-((5-phenylpyrimidin-2-yl)methyl)piperazine-2,3-dione]
8	O=C1C(=O)N(C2CC(F)C2)CCN1Cc1nnc(-c2ccccc2)s1 (stereo not shown) [Example 290, 1-(3-fluorocyclobutyl)-4-((5-phenyl-1,3,4-thiadiazol-2-yl)methyl)piperazine-2,3-dione]
4	O=C1C(=O)N(C2CC(C3CC3)C2)CCN1Cc1nnc(-c2ccccc2)s1 (stereo not shown) [Example 291, 1-(3-cyclopropylcyclobutyl)-4-((5-phenyl-1,3,4-thiadiazol-2-yl)methyl)piperazine-2,3-dione]
64	O=C1C(=O)N(c2ccccc2)CCN1Cc1ncc(-c2ccccc2)cn1 [Example 292, 1-phenyl-4-((5-phenylpyrimidin-2-yl)methyl)piperazine-2,3-dione]

EC50 [nM]	SMILES
11	[2H]C1(n2ccn(Cc3nnc(-c4ccccc4)s3)c(=O)c2=O)CCCC1 [Example 293, 1-(cyclopentyl-1-d)-4-((5-phenyl-1,3,4-thiadiazol-2-yl)methyl)-1,4-dihydropyrazine-2,3-dione]
16	O=C1C(=O)N(C23CC(F)(C2)C3)CCN1Cc1nnc(-c2ccccc2)s1 [Example 294, 1-(3-fluorobicyclo[1.1.1]pentan-1-yl)-4-((5-phenyl-1,3,4-thiadiazol-2-yl)methyl)piperazine-2,3-dione]
53	N#CC12CC(N3CCN(Cc4nnc(-c5ccccc5)s4)C(=O)C3=O)(C1)C2 [Example 295, 3-(2,3-dioxo-4-((5-phenyl-1,3,4-thiadiazol-2-yl)methyl)piperazin-1-yl)bicyclo[1.1.1]pentane-1-carbonitrile]
63	CC12CC(N3CCN(Cc4nnc(-c5ccccc5)s4)C(=O)C3=O)(CO1)C2 [Example 296, 1-(1-methyl-2-oxabicyclo[2.1.1]hexan-4-yl)-4-((5-phenyl-1,3,4-thiadiazol-2-yl)methyl)piperazine-2,3-dione]
83	COc1ccc(C2(N3CCN(Cc4nnc(-c5ccccc5)s4)C(=O)C3=O)CC2)nc1 [Example 297, 1-(1-(5-methoxypyridin-2-yl)cyclopropyl)-4-((5-phenyl-1,3,4-thiadiazol-2-yl)methyl)piperazine-2,3-dione]
32	O=C1C(=O)N(C2(C(F)(F)F)CCC2)CCN1Cc1nnc(-c2ccccc2)s1 [Example 298, 1-((5-phenyl-1,3,4-thiadiazol-2-yl)methyl)-4-(1-(trifluoromethyl)cyclobutyl)piperazine-2,3-dione]
56	COCC(C)(C)N1CCN(Cc2nnc(-c3ccccc3)s2)C(=O)C1=O [Example 299, 1-(1-methoxy-2-methylpropan-2-yl)-4-((5-phenyl-1,3,4-thiadiazol-2-yl)methyl)piperazine-2,3-dione]
86	CC(C)(c1cccnc1)N1CCN(Cc2nnc(-c3ccccc3)s2)C(=O)C1=O [Example 300, 1-((5-phenyl-1,3,4-thiadiazol-2-yl)methyl)-4-(2-(pyridin-3-yl)propan-2-yl)piperazine-2,3-dione]
67	O=C1C(=O)N(C23CCC(CC2=O)C3)CCN1Cc1nnc(-c2ccccc2)s1 (stereo not shown) [Example 301, 1-(2-oxobicyclo[2.2.1]heptan-1-yl)-4-((5-phenyl-1,3,4-thiadiazol-2-yl)methyl)piperazine-2,3-dione]
69	CC1(N2CCN(Cc3nnc(-c4ccccc4)s3)C(=O)C2=O)COC1 [Example 302, 1-(3-methyloxetan-3-yl)-4-((5-phenyl-1,3,4-thiadiazol-2-yl)methyl)piperazine-2,3-dione]
28	CC1(N2CCN(Cc3nnc(-c4ccccc4)s3)C(=O)C2=O)CC1 [Example 303, 1-(1-methylcyclopropyl)-4-((5-phenyl-1,3,4-thiadiazol-2-yl)methyl)piperazine-2,3-dione]
98	O=C1C(=O)N(C2(c3ccncc3)CC2)CCN1Cc1nnc(-c2ccccc2)s1 [Example 304, 1-((5-phenyl-1,3,4-thiadiazol-2-yl)methyl)-4-(1-(pyridin-4-yl)cyclopropyl)piperazine-2,3-dione]
32	O=C1C(=O)N(C2(CF)CC2)CCN1Cc1nnc(-c2ccccc2)s1 [Example 305, 1-(1-(fluoromethyl)cyclopropyl)-4-((5-phenyl-1,3,4-thiadiazol-2-yl)methyl)piperazine-2,3-dione]
27	CC1(N2CCN(Cc3nnc(-c4ccccc4)s3)C(=O)C2=O)CCCCC1 [Example 306, 1-(1-methylcyclohexyl)-4-((5-phenyl-1,3,4-thiadiazol-2-yl)methyl)piperazine-2,3-dione]
20	CC(C)(C)N1CCN(Cc2nnc(-c3ccccc3)s2)C(=O)C1=O [Example 307, 1-(tert-butyl)-4-((5-phenyl-1,3,4-thiadiazol-2-yl)methyl)piperazine-2,3-dione]
35	N#CC1(N2CCN(Cc3nnc(-c4ccccc4)s3)C(=O)C2=O)CC1 [Example 308, 1-(2,3-dioxo-4-((5-phenyl-1,3,4-thiadiazol-2-yl)methyl)piperazin-1-yl)cyclopropane-1-carbonitrile]
41	O=C1C(=O)N(C2CCCC2)CCN1Cc1nnc(N2CCCCC2)s1 [Example 309, 1-cyclopentyl-4-((5-(piperidin-1-yl)-1,3,4-thiadiazol-2-yl)methyl)piperazine-2,3-dione]
41	O=C1C(=O)N(C2CCCC2)CCN1Cc1nnc(N2CCCC2)s1 [Example 310, 1-cyclopentyl-4-((5-(pyrrolidin-1-yl)-1,3,4-thiadiazol-2-yl)methyl)piperazine-2,3-dione]
60	O=C1C(=O)N(C2CCCC2)CCN1Cc1nnc(N2CC[C@H](F)C2)s1 [Example 311, (S)-1-cyclopentyl-4-((5-(3-fluoropyrrolidin-1-yl)-1,3,4-thiadiazol-2-yl)methyl)piperazine-2,3-dione]
69	O=C1C(=O)N(C2CCCC2)CCN1Cc1nnc(N2CC[C@H](CF)C2)s1 [Example 312, (S)-1-cyclopentyl-4-((5-(3-(fluoromethyl)pyrrolidin-1-yl)-1,3,4-thiadiazol-2-yl)methyl)piperazine-2,3-dione]
